# Structures can show the parent of a compound that is named as a salt.
# What was measured:
# [1] = system: SH-SY5Y cells (neuroblastoma, human dopaminergic neuronal cells); details: 24 h
# Method: SH-SY5Y cells (neuroblastoma, human dopaminergic neuronal cells) were incubated in MEM medium containing 1% antimycotics/antibiotics and 10% FBS. The cells were seeded at a density of 10^5 cell/ […] in a 96-well plate, and then incubated for 24 hours.
# The cell line used was SH-SY5Y cells, and the cells were treated with the Vaccinium bracteatum Thunb. fruit hot-water extract at concentrations of 1, 3, 10, 30, and 100 μg/ml to investigate cytotoxicity.
# (§1) After 24 hours, cell viability was determined using an MTT assay.
# as §1
# ICR male mice = experiment: Forced swimming test after 6-day oral administration; format: in vivo; details: comparison group, 6 days
# Method: The ICR male mice were orally administered with the Vaccinium bracteatum Thunb. fruit extract of the present invention. For a comparative group, escitalopram oxalate used an anti-depressant was orally administered. These were administered for 6 days according to the test. Before drug administration, for the pre-test (pre-swim), tap water around 25° C. was poured into a cylindrical water tank (20 cm in diameter, 40 cm in height) from the bottom of the cylinder to 15 cm, and then the mice were put into the water tank, forced to swim for 15 minutes, taken out from the water, wiped with a dry towel, and then returned to breeding boxes. After 6 days of drug administration, the present test (post-swim) was carried out. […] The recorded image was analyzed excluding the first minute therefrom, and animal behavior during the last 5 minutes was classified into 3 types: immobility behavior (the mouse only floated near the surface of the water, slightly moving while only a part of the upper body including the face was above water), swimming behavior (the mouse moved horizontally around the cylinder moving the front and hind legs in a swimming motion), and climbing behavior (the mouse scratched the wall, somewhat violently kicking the front extremities to move remain above water). The duration of each behavior type was measured.
# corticosterone (COR) = experiment: Plasma corticosterone (COR) by ELISA after 6-day administration; format: in vivo, mice; details: escitalopram oxalate 10 mg/kg, 6 days; no significance
# Method: The effects on concentration changes of the neurotransmitter NE associated with depression and the stress hormone COR in normal conditions were measured by isolating plasma from the mice after 6 day-administration of each drug and using the Abnova ELISA kit according to the instruction of the manufacturer.
smiles,measurement,setting,value
"OO [H2O2, hydrogen peroxide]",cell viability,[1]; 10 μM,50-60%
C[C@]12C[C@H](O)[C@H]3[C@@H](CCC4=CC(=O)CC[C@@]43C)[C@@H]1CC[C@@H]2C(=O)CO [corticosterone],cytotoxicity,[1]; 1 mM,50-60%
CN(C)CCC[C@@]1(c2ccc(F)cc2)OCc2cc(C#N)ccc21 [escitalopram oxalate],swimming time,ICR male mice; control 51.82±3.38 seconds,128.16 ± 6.65 s
same,immobility time,"ICR male mice; last 5 min of 6 min swim, control 245.48±4.05 seconds",169.65 ± 7.15 s
same,level of the stress hormone corticosterone compared with the control group,corticosterone (COR),decrease tendency

# — US10925914B2, “Method for alleviating depression using a health functional food containing Vaccinium bracteatum Thunb fruit extract” (priority 2016, dated 2021)
